In ChEMBL document CHEMBL1132763, “8-Aminocyclazocine analogues: synthesis and structure-activity relationships” (Bioorg Med Chem Lett, 2000) one finds Ki data, which are given here for 21 compounds.

The term Ki denotes a dissociation constant, usually derived from enzyme kinetics or from competition with a known ligand. High values mean weaker binding, low ones tighter binding.

The structures appear in SMILES notation.

Assay [1] concerns the target Kappa-type opioid receptor (Cavia porcellus, UniProt P41144). The assay is described as follows: Binding affinity was determined against Opioid receptor kappa 1 obtained from guinea pig brain membranes using [3H]U-69593 as radioligand.
Assay [2] addresses Mu-type opioid receptor (Cavia porcellus, UniProt P97266). The assay is described as follows: Binding affinity was determined against Opioid receptor mu 1 obtained from guinea pig brain membranes using [3H]DAMGO as radioligand.
Assay [3] in a line: Binding affinity was determined against Opioid receptor delta 1 obtained from guinea pig brain membranes using [3H]naltrindole as radioligand.

Sequence of Mu-type opioid receptor (P97266 whole entry): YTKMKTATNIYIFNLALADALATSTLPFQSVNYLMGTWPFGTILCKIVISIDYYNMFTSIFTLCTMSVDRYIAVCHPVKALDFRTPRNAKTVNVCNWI
Sequence of Kappa-type opioid receptor (P41144 whole entry): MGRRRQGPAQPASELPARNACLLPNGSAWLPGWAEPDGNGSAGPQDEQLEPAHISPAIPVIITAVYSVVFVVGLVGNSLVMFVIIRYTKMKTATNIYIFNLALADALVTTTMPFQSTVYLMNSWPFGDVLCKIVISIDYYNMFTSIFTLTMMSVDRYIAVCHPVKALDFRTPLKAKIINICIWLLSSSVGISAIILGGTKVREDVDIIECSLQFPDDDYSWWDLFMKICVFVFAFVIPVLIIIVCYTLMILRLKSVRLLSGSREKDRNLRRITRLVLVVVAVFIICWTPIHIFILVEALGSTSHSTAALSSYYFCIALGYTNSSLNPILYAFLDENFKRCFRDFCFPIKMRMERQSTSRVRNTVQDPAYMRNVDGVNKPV

Regarding `C[C@@H]1[C@@H]2Cc3ccc(O)cc3[C@@]1(C)CN2CC1CC1`, the values for the Ki in assay [1] and in assay [2] were 76 nM and 360 nM, respectively. For the compound `CNc1ccc2c(c1)[C@@]1(C)CCN(CC3CC3)C(C2)[C@@H]1C` (mixture of isomers), in assay [1], the affinity, expressed as Ki, was 8.5 nM. For `C[C@H]1C2Cc3ccc(N(C)Cc4ccccc4)cc3[C@@]1(C)CCN2CC1CC1` (mixture of isomers), the Ki in assay [1] was found to be 44 nM; in assay [2] it was 56 nM. In the same order, the values of `C[C@H]1C2Cc3ccc(N(C)C)cc3[C@@]1(C)CCN2CC1CC1` (mixture of isomers) are 33 nM and 82 nM. In the same order, the values of `C[C@H]1C2Cc3ccc(NCc4ccccc4)cc3[C@@]1(C)CCN2CC1CC1` (mixture of isomers) are 4.7 nM and 1.5 nM. In the same order, the values of `C[C@H]1C2Cc3ccc(N)cc3[C@@]1(C)CCN2CC1CC1` (mixture of isomers) are 4.1 nM and 9.5 nM. On to `C[C@H]1C2Cc3ccc(N4CCCCC4)cc3[C@@]1(C)CCN2CC1CC1` (mixture of isomers), for which the results for the Ki in assay [1] and in assay [2] were 300 nM and 950 nM, respectively. On the same counts, the results for `C[C@H]1C2Cc3ccc(N4CCOCC4)cc3[C@@]1(C)CCN2CC1CC1` (mixture of isomers) are 560 nM and 650 nM. In the same order, the values of `C[C@H]1C2Cc3ccc(N4CCN(C)CC4)cc3[C@@]1(C)CCN2CC1CC1` (mixture of isomers) are 8.8 nM and 21 nM. On the same counts, the results for `CC(C)Nc1ccc2c(c1)[C@@]1(C)CCN(CC3CC3)C(C2)[C@@H]1C` (mixture of isomers) are 78 nM and 240 nM. As for `CCNc1ccc2c(c1)[C@@]1(C)CCN(CC3CC3)C(C2)[C@@H]1C` (mixture of isomers), the Ki in assay [1] was 3.3 nM; in assay [2], 5.1 nM. Compound `C[C@H]1C2Cc3ccc(N4CCCC4)cc3[C@@]1(C)CCN2CC1CC1` (mixture of isomers) gave a Ki in assay [1] of 410 nM.

For the compound `C[C@H]1C2Cc3ccc(NCCc4ccccc4)cc3[C@@]1(C)CCN2CC1CC1` (mixture of isomers), the Ki in assay [1] is 11 nM; in assay [2] it was 9 nM. As for `C[C@H]1[C@H]2Cc3ccc(Nc4ccccc4)cc3[C@@]1(C)CCN2CC1CC1` (racemic), the results for the Ki in assay [1] and in assay [2] were 0.83 nM and 1.3 nM, respectively. The compound `C[C@H]1[C@H]2Cc3ccc(O)cc3[C@@]1(C)CCN2CC1CC1` (racemic) yielded a Ki in assay [1] of 0.18 nM. Regarding `C[C@H]1C2Cc3ccc(N)cc3[C@@]1(C)CCN2CC1CC1` (stereo in doubt; (+)-6), the Ki in assay [1] turned out to be 506 nM; in assay [2], 780 nM.

On to `C[C@H]1[C@H]2Cc3ccc(Nc4ccccc4)cc3[C@@]1(C)CCN2CC1CC1` (stereo in doubt; (+)-12), for which the Ki in assay [1] is 27 nM; in assay [2] it was 46 nM.

Turning to `C[C@H]1C2Cc3ccc(N)cc3[C@@]1(C)CCN2CC1CC1` (stereo in doubt; (-)-5), the values for the Ki in assay [1] and in assay [2] were 1.2 nM and 1.8 nM, respectively.

With `C[C@H]1[C@H]2Cc3ccc(Nc4ccccc4)cc3[C@@]1(C)CCN2CC1CC1` (stereo in doubt; (-)-11), the results for the Ki in assay [1] and in assay [2] were 0.54 nM and 1.1 nM, respectively. On the same counts, the results for `C[C@H]1C2Cc3ccc(NCc4ccccc4)cc3[C@@]1(C)CCN2CC1CC1` (stereo in doubt; (-)-14) are 2.1 nM and 0.67 nM. `C[C@H]1[C@H]2Cc3ccc(O)cc3[C@]1(C)CCN2CC1CC1` [CYCLAZOCINE] returned a Ki in assay [3] of 0.58 nM.
